Where two headings read alike, the source gives them in different places.
Tests used:
MDCK cells = assay: Cytotoxicity, CCK-8 cell viability assay in MDCK cells; assay type: cell-based; details: 48 h
Protocol: (§1) The cells were treated with various concentrations of compounds dissolved in DMSO for 48 h, and then cell viability was assayed using a Cell Counting kit‑8 (CCK-8; Beyotime, Shanghai, China). In brief, 10 μl of the CCK‑8 solution was added, and the cells were incubated for an additional 2 h. Medium without cells was used as a blank control. Absorbance at a wavelength of 450 nm was measured using a microplate reader. Cell viability was determined as a percentage of that of the control. All cell proliferation assays were performed in triplicate and repeated in three independent experiments.

RSV = assay: Anti-RSV activity in HEK293T cells (Western blot, RT-qPCR); assay type: cell-based, respiratory syncytial virus; details: MOI 0.5, 48 h, safe drug concentrations
EV71 [1] = assay: Anti-EV71 activity in infected RD cells (Western blot, RT-qPCR, virus titer)
EV71 CC063 = assay: Lethal EV71 challenge, neonatal mouse model; assay type: in vivo, ICR neonatal mice
Protocol: (§2) One-day-old specific pathogen-free (SPF) ICR neonatal mice (Beijing Institute of Radiation Medicine) were used to establish the animal model of viral infection. All welfare and experimental procedures were carried out strictly in accordance with the Guide for the Care and Use of Laboratory Animals and the related ethical regulations of the Beijing Institute of Radiation Medicine. All efforts were made to minimize animal suffering. The neonatal mice were randomly divided into five groups, and each group contained three litters (n = 8 to ∼10 per litter). One group was inoculated intracerebrally with DMEM (10 μl/mouse) and after 1 h injected intraperitoneally with DMSO (control group). Two groups were inoculated intracerebrally with EV71 CC063 (10^5.5 CCID50 ml^−1) and after 1 h injected intraperitoneally with FNC or DMSO. Two groups were inoculated intracerebrally with CA16 CC045 (10^2.7 CCID50 ml^−1) and after 1 h injected intraperitoneally with FNC or DMSO. The survival rates and mean clinical symptoms were monitored daily for 15 days postinfection. The mean clinical symptoms were scored as follows: 0, healthy; 1, lethargy or weakness; 2, wasting; 3, limb tremors; 4, paralysis in hind limb; and 5, moribund or dead. The control mice were healthy throughout the experiments.
(§3) After intracerebral inoculation with EV71 CC063 viruses, CA16 CC045 viruses, or culture medium, three experimental neonatal mice and three control neonatal mice were subjected to viral load detection. The EV71 infection and control groups were collected on day 9 postinfection, and the CA16 infection and control groups were collected on day 14 postinfection. All tissues, including brain, lung, spine skeletal muscle, and hind-limb muscle, were weighed individually, homogenized in sterile PBS, disrupted by freeze-thawing, and centrifuged. The samples were treated with TRIzol (Invitrogen) for RNA extraction and viral load determination by real-time PCR, as described previously ([42]). Viral loads were determined by real-time PCR and expressed as log10 copies/mg tissue.
A total of 15 mice were sampled, as follows: three normal mice from the mock-infected group (the clinical score of grade 0), three mice from the EV71-infected and DMSO-treated group (the clinical score of grade 4), three mice from the CA16-infected and DMSO-treated group (the clinical score of grade 3), three mice from the EV71-infected and FNC-treated group (the clinical score of grade 3), and three mice from the CA16-infected and FNC-treated group (the clinical score of grade 1). After the mice were anesthetized, lung, brain, spine skeletal muscle, and hind-limb muscle tissues were harvested and immersion fixed with 10% formaldehyde solution for 5 days. […]

[2] = test system: EV71, CA16, CA6, CVB3, and EVD68; assay: Antiviral activity against a variety of enteroviruses in RD cells
CA16 = assay: Anti-CA16 activity in infected RD cells (RT-qPCR); details: Enterovirus A, read-out: EC50 for CA16
CA6 = assay: Anti-CA6 activity in infected RD cells (RT-qPCR); details: read-out: EC50 for CA6
EV71 3D^pol [3] = molecular target: T1, EV71 3D^pol (Human enterovirus 71, UniProt Q66478); assay: Isothermal titration calorimetry with EV71 3Dpol; assay type: binding
T1 construct: EV71 3D^pol was cloned into the pET28a expression vector with a His tag at the N terminus; His tag (N); made in house; host or cells: E. coli BL21-derived cells
T1 sequence (Q66478 1732-2193): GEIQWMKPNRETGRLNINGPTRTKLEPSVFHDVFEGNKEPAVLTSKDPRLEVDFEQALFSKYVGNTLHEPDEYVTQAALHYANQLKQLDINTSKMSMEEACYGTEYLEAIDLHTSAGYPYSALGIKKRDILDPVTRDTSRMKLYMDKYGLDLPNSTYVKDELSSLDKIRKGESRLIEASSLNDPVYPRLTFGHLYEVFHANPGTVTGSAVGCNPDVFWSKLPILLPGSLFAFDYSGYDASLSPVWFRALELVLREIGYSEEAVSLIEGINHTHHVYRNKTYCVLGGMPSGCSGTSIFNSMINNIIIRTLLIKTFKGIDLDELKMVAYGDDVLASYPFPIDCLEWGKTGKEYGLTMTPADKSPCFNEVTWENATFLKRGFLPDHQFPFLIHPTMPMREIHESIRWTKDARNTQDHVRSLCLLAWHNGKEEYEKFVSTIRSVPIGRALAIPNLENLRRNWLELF
Protocol: (§4) EV71 3D^pol was cloned into the pET28a expression vector with a His tag at the N terminus and expressed in E. coli BL21-derived cells. The 3D^pol protein was purified by Ni-column affinity chromatography, and a gel filtration column was connected to an ÄKTA system (General Electric Company, CT, USA). The purity of the resulting 3D^pol protein was determined through SDS-PAGE analysis.
ITC experiments were performed by using an ITC200 instrument (MicroCal, Inc., Northampton, MA, USA). The concentration of 3D^pol was 100 μM. FNC was diluted with buffer (pH 7.5, 25 mM HEPES, 100 mM NaCl) to yield a solution of 1.0 mM. The sample cell was filled with 3D^pol protein solution, and FNC was added by syringe at 25°C. The stirring rate was 750 r/min. All data were analyzed using the Origin 7.0 software.

HEK293T cells = assay: Cytotoxicity, CCK-8 cell viability assay in HEK293T cells; assay type: cell-based; details: 48 h
Protocol: as §1

EV71 3D^pol [4] = molecular target: T1, EV71 3D^pol; assay: Fluorescence-based activity assay for EV71 3Dpol; assay type: biochemical; details: poly(A)/UTP, SYTO 9, 30°C
Protocol: as §4
We followed the novel fluorescence-based method for the detection of polymerase activity of EV71 3D^pol ([52]). Reactions were performed in individual wells of black 96-well flat-bottom plates. The standard reaction contained 50 mM Tris-HCl (pH 7.5), 2.5 mM MnCl2, 100 μM UTP, 40 μg/ml poly(A), 0.1 mg/ml bovine serum albumin (BSA), and 0.25 μM SYTO 9. Different concentrations of FNC were added to the reaction mixtures. The assay was initiated by the addition of EV71 3D^pol, and the fluorescence was recorded at 30°C.

CVB3 = assay: Anti-CVB3 activity in infected RD cells (RT-qPCR); details: Enterovirus B, read-out: EC50 for CVB3
[5] = Cytotoxicity, CCK-8 cell viability assay in RD cells; assay type: cell-based, human; details: human
Protocol: as §1

RD cells = assay: as above; assay type: cell-based, human; details: 48 h
Protocol: as §1

CA16 CC045 = assay: Lethal CA16 challenge, neonatal mouse model; assay type: in vivo, ICR neonatal mice
Protocol: as §2
as §3, with “tissue. […]” for “tissue.”

EVD68 = assay: Anti-EVD68 activity in infected RD cells (RT-qPCR); details: Enterovirus D, read-out: EC50 for EVD68
deoxycytidine kinase = test system: deoxycytidine kinase; design: method as in PMID 18003608; details: substrate for deoxycytidine kinase ref 32; cited from earlier work
influenza A(H1N1) virus = assay: Anti-influenza A(H1N1) activity in MDCK cells (Western blot, RT-qPCR); assay type: cell-based
EV71 [6] = test system: EV71; design: method as in PMID 18279075; details: RD cells, virus-induced CPE assay ref 27; read-out: 50% effective concentration (EC50) against EV71; cited from earlier work
[7] = vs DMSO treatment group, P < 0.05

Structure (SMILES): [N-]=[N+]=N[C@]1(CO)O[C@@H](n2ccc(N)nc2=O)[C@@H](F)[C@@H]1O [FNC, 2'-deoxy-2'-β-fluoro-4'-azidocytidine]
- safe dose (MDCK cells): 10 µM
- effect on RSV replication (viral proteins, RNA) (RSV): no inhibitory effect
- virus titers in supernatants (plaque assay, CPE-based TCID50) (EV71 [1]; EV71-infected RD cells, increasing doses): continuously decreasing virus titers
- EC50 (EV71 [1]; Enterovirus A, EV71, RD, 48 h, read-out: EC50 against EV71, RD cells, from reduced viral RNA level (RT-qPCR), 48 h): 16.9 nM
- EV71 VP1 protein by Western blot (EV71 [1]; RD cells, 100 nM, 48 h postinfection): could not be detected
- anti-EV71 activity, intracellular VP1 protein by Western blot (EV71 [1]; RD cells, MOI 0.1, 48 h treatment, 1 μM): obvious anti-EV71 activity
- tissue damage, H&E histology (EV71 CC063; EV71-infected spinal skeletal muscle and hind-limb muscle): significantly reduced the damage
- mortality (EV71 CC063; EV71 CC063 intracerebral, 1-day-old mice, 1 mg/kg i.p. days 1, 3, 6, 9, 12, 15 days): 20%
- EV71 viral load in spine skeletal muscle and hind-limb muscle (RT-qPCR) (EV71 CC063; [7]): completely decreased
- EV71 viral loads in brain and lung (RT-qPCR) (EV71 CC063; [7]): moderately reduced
- virions in the supernatant and viral titers ([2]; CA16, CA6, CVB3, EVD68, RD cells): suppressed by FNC in a dose-dependent manner
- positive- and negative-strand EV RNA synthesis (RT-qPCR) ([2]; EV71, CA16, CA6, CVB3, EVD68, RD cells, 48 h): inhibited both positive- and negative-strand EV RNA synthesis
- selectivity indices (CC50/EC50) against EVs ([2]; RD cells): good selectivity indices
- EC50 ([2]; RD, read-out: EC50 against a variety of enteroviruses): 1.55 to 52.1 nM
- suppression of EVs (VP1 protein expression, viral RNA levels, viral titers) ([2]; in vitro cell model): efficiently suppressed
- EC50 (CA16): 52.1 nM
- EC50 (CA6): 13.4 nM
- Kd (EV71 3D^pol [3]): 6000 nM
- safe dose (HEK293T cells): 100 µM
- RNA synthesis activity of EV71 3Dpol (EV71 3D^pol [4]): inhibited the RNA synthesis activity of EV71 3D^pol in a dose-dependent manner
- EC50 (CVB3): 33.8 nM
- CC50 at 48 h [5]: 3240 nM
- concentration that did not significantly affect cell viability (safe dose) (RD cells): 1000 nM
- tissue damage, H&E histology (CA16 CC045; CA16-infected brain, spinal skeletal muscle, hind-limb muscle): significantly reduced the damage
- mortality (CA16 CC045; CA16 CC045 intracerebral, 1-day-old mice, 1 mg/kg i.p. days 1, 3, 6, 9, 12, 15 days): 0%
- CA16 viral load in all detected tissues (RT-qPCR) (CA16 CC045; brain, lung, spine skeletal muscle, hind-limb muscle, vs DMSO, P < 0.05): completely decreased
- EC50 (EVD68): 1.55 nM
- phosphorylation efficiency relative to deoxycytidine (deoxycytidine kinase): up to 3 fold
- effect on H1N1 replication (viral proteins, RNA) (influenza A(H1N1) virus): no inhibitory effect

Structure (SMILES): NC(=O)c1ncn([C@@H]2O[C@H](CO)[C@@H](O)[C@H]2O)n1 [ribavirin]
- interaction with EV71 3Dpol by ITC (EV71 3D^pol [3]; ITC, 25°C, 3 mM ribavirin into 100 μM 3Dpol): failed to observe the interaction
- EC50 (EV71 [6]): 266000 nM
